Assay results from patent publication US8901118B2, “Compounds and methods for kinase modulation, and indications therefor” (Plexxikon Inc., priority 2010, dated 2014).
pIC50: −log10 of the molar value.

Key:
[1] = Relative solubility by turbidity in aqueous buffers (pH 1.5, 4.5, 6.8, 7.4); assay type: physicochemical; conditions: for turbidity threshold (L, M, H) 1.4: pH 1.5 (SGF); for turbidity threshold (L, M, H) 4.5: pH 4.5 (SIF); for turbidity threshold (L, M, H) 6.8: pH 6.8 (SIF); for turbidity threshold (L, M, H) 7.4: pH 7.4 (HEPES)
In short: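 Reported value: concentration at which optical density at 490, 535 and 650 nm passes 0.01, taken as the mean of the three wavelengths. Buffers were 0.5M NaCl pH 1.5, 0.05M NaH2PO4 pH 4.5 or 6.8, and 10 mM HEPES/150 mM NaCl pH 7.4, each receiving serial 1:1 DMSO dilutions of a 25 mM stock.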

BCR-NTRK2 BaF3 cells = biological target: T1, BCR-NTRK2 BaF3 cells (Homo sapiens, UniProt Q16620); assay: BaF3 BCR-NTRK2 cell proliferation assay (ATPlite); assay type: cell-based; conditions: read-out: Inhibition of Cell Proliferation IC50, BCR/BaF3 TrkB
T1 construct: fused on or other part: P11274 (Breakpoint cluster region protein)
T1 sequence (Q16620 538-807): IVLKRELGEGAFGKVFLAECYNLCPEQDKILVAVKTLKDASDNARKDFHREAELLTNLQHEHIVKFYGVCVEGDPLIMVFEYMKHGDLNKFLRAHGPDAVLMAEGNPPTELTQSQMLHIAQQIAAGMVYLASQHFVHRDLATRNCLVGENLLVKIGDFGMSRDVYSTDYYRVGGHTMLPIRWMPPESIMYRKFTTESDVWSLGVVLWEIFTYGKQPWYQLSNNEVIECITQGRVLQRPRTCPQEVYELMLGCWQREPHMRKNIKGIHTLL
In short: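 Proliferation was run for 3 days at 37 °C against 8-point 1:3 titrations with 10 μM as the top final concentration. Seeding was 10,000 cells/well for BaF3 BCR-fusion lines, grown without IL-3, and 25,000 cells/well for MV-4-11. IC50 was derived from ATPlite luminescence read as cell number.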

Row | SMILES | turbidity threshold (L, M, H) 1.4 [1] | turbidity threshold (L, M, H) 4.5 [1] | turbidity threshold (L, M, H) 6.8 [1] | turbidity threshold (L, M, H) 7.4 [1] | pIC50 (BCR-NTRK2 BaF3 cells)
1 | CCN1CCC(Nc2ncnc3[nH]cc(C(=O)c4ccc(Nc5ccc(OC)nc5)nc4F)c23)CC1 [Compound P-4074, [4-[(1-ethyl-4-piperidyl)amino]-7H-pyrrolo[2,3-d]pyrimidin-5-yl]-[2-fluoro-6-[(6-methoxy-3-pyridyl)amino]-3-pyridyl]methanone] | H (high solubility if the threshold concentration is >250 μm) | M (moderate solubility if the threshold concentration is 31.3 μM to 250 μM) | M (moderate solubility if the threshold concentration is 31.3 μM to 250 μM) | M (moderate solubility if the threshold concentration is 31.3 μM to 250 μM) | > 7.00
2 | COc1ccc(Nc2ccc(C(=O)c3c[nH]c4ncnc(NC5CCCC5)c34)c(F)n2)cn1 [Compound P-4075, [4-(cyclopentylamino)-7H-pyrrolo[2,3-d]pyrimidin-5-yl]-[2-fluoro-6-[(6-methoxy-3-pyridyl)amino]-3-pyridyl]methanone] | M (moderate solubility if the threshold concentration is 31.3 μM to 250 μM) | L (low solubility if the threshold concentration is <31.3 μM) | L (low solubility if the threshold concentration is <31.3 μM) | L (low solubility if the threshold concentration is <31.3 μM) | > 8.00
3 | COc1ccc(Nc2ccc(C(=O)c3c[nH]c4ncnc(NC5CCC5)c34)c(F)n2)cn1 [Compound P-4076, [4-(cyclobutylamino)-7H-pyrrolo[2,3-d]pyrimidin-5-yl]-[2-fluoro-6-[(6-methoxy-3-pyridyl)amino]-3-pyridyl]methanone] | M (moderate solubility if the threshold concentration is 31.3 μM to 250 μM) | M (moderate solubility if the threshold concentration is 31.3 μM to 250 μM) | M (moderate solubility if the threshold concentration is 31.3 μM to 250 μM) | L (low solubility if the threshold concentration is <31.3 μM) | > 8.00
4 | CCC(CC)Nc1ncnc2[nH]cc(C(=O)c3ccc(Nc4ccc(OC)nc4)nc3F)c12 [Compound P-4077, [4-(1-ethylpropylamino)-7H-pyrrolo[2,3-d]pyrimidin-5-yl]-[2-fluoro-6-[(6-methoxy-3-pyridyl)amino]-3-pyridyl]methanone] | M (moderate solubility if the threshold concentration is 31.3 μM to 250 μM) | L (low solubility if the threshold concentration is <31.3 μM) | L (low solubility if the threshold concentration is <31.3 μM) | L (low solubility if the threshold concentration is <31.3 μM) | > 8.00
5 | CCC(C)Nc1ncnc2[nH]cc(C(=O)c3ccc(Nc4ccc(OC)nc4)nc3F)c12 (stereo not drawn) [Compound P-4078, [2-fluoro-6-[(6-methoxy-3-pyridyl)amino]-3-pyridyl]-[4-(sec-butylamino)-7H-pyrrolo[2,3-d]pyrimidin-5-yl]methanone] | M (moderate solubility if the threshold concentration is 31.3 μM to 250 μM) | L (low solubility if the threshold concentration is <31.3 μM) | L (low solubility if the threshold concentration is <31.3 μM) | L (low solubility if the threshold concentration is <31.3 μM) | > 8.00
6 | COCCCNc1ncnc2[nH]cc(C(=O)c3ccc(Nc4ccc(OC)nc4)nc3F)c12 [Compound P-4079, [2-fluoro-6-[(6-methoxy-3-pyridyl)amino]-3-pyridyl]-[4-(3-methoxypropylamino)-7H-pyrrolo[2,3-d]pyrimidin-5-yl]methanone] | H (high solubility if the threshold concentration is >250 μm) | M (moderate solubility if the threshold concentration is 31.3 μM to 250 μM) | M (moderate solubility if the threshold concentration is 31.3 μM to 250 μM) | M (moderate solubility if the threshold concentration is 31.3 μM to 250 μM) | > 8.00
7 | CCCCNc1ncnc2[nH]cc(C(=O)c3ccc(Nc4ccc(OC)nc4)nc3F)c12 [Compound P-4080, [4-(butylamino)-7H-pyrrolo[2,3-d]pyrimidin-5-yl]-[2-fluoro-6-[(6-methoxy-3-pyridyl)amino]-3-pyridyl]methanone] | M (moderate solubility if the threshold concentration is 31.3 μM to 250 μM) | M (moderate solubility if the threshold concentration is 31.3 μM to 250 μM) | H (high solubility if the threshold concentration is >250 μm) | M (moderate solubility if the threshold concentration is 31.3 μM to 250 μM) | > 8.00
8 | CCNc1ncnc2[nH]cc(C(=O)c3ccc(Nc4ccc(OC)nc4)nc3F)c12 [Compound P-4081, [4-(ethylamino)-7H-pyrrolo[2,3-d]pyrimidin-5-yl]-[2-fluoro-6-[(6-methoxy-3-pyridyl)amino]-3-pyridyl]methanone] | H (high solubility if the threshold concentration is >250 μm) | M (moderate solubility if the threshold concentration is 31.3 μM to 250 μM) | H (high solubility if the threshold concentration is >250 μm) | M (moderate solubility if the threshold concentration is 31.3 μM to 250 μM) | > 8.00
9 | COc1ccc(Nc2ccc(C(=O)c3c[nH]c4ncnc(NC5CCCCC5)c34)c(F)n2)cn1 [Compound P-4082, [4-(cyclohexylamino)-7H-pyrrolo[2,3-d]pyrimidin-5-yl]-[2-fluoro-6-[(6-methoxy-3-pyridyl)amino]-3-pyridyl]methanone] | M (moderate solubility if the threshold concentration is 31.3 μM to 250 μM) | L (low solubility if the threshold concentration is <31.3 μM) | L (low solubility if the threshold concentration is <31.3 μM) | L (low solubility if the threshold concentration is <31.3 μM) | > 8.00
